From article PMC6792352, “Limited Chemical Structural Diversity Found to Modulate Thyroid Hormone Receptor in the Tox21 Chemical Library” (Environmental Health Perspectives, 2019)
Where a name gives a salt, the structure may show the parent alone.

Test: in vitro
Conditions: rat, gh3-tre-luc cells

SMILES | CC50 at 24 h (AC50 (uM) modified / 1000) | also measured
O=C(Cc1ccccc1)OCCc1ccccc1 [2-Phenylethyl phenylacetate] |  | CC50 at 24 h (AC50 (uM) modified / 1000, Tox21_110001=Tox21_300689, viability, 1 nM T3 present, 24 h): > 90 µM
CCC(=O)OCCc1ccccc1 [2-Phenylethyl propionate] | > 90 µM | 
OCCSc1ccccc1 [2-Phenylmercaptoethanol] | > 90 µM | 
Oc1ccccc1-c1ccccc1 [2-Phenylphenol] |  | CC50 at 24 h (AC50 (uM) modified / 1000, Tox21_110001=Tox21_202415, viability, 1 nM T3 present, 24 h): > 90 µM
CC(CO)c1ccccc1 (stereo not shown) [2-Phenylpropan-1-ol] | > 90 µM | 
CC(C)(O)c1ccccc1 [2-Phenylpropan-2-ol] | > 90 µM | 
COC(OC)C(C)c1ccccc1 (stereo not shown) [2-Phenylpropionaldehyde dimethyl acetal] | > 90 µM | 
C=CCS(=O)(=O)O [2-Propene-1-sulfonic acid, sodium salt] | > 90 µM | 
CCCOCCO [2-Propoxyethanol] | > 90 µM | 
CCCCCC(CO)CCC (stereo not shown) [2-Propyl-1-heptanol] | > 90 µM | 
CCCc1ccccc1O [2-Propylphenol] | > 90 µM | 
N#Cc1ccccn1 [2-Pyridinecarbonitrile] | > 100 µM | 
O=C1CCCN1 [2-Pyrrolidinone] | > 90 µM | 
c1csc(SSc2cccs2)c1 [2-Thienyl disulfide] | > 90 µM | 
O=C(O)c1ccccc1S [2-Thiosalicylic acid] | > 50 µM | 
Cc1ccccc1C=O [2-Tolualdehyde] | > 90 µM | 
Cc1ccccc1C#N [2-Tolunitrile] | > 90 µM | 
CCCCCCCCCCCC(C)=O [2-Tridecanone] | > 90 µM | 
CCCCCCCCCC(C)=O [2-Undecanone] | > 90 µM | 
C=Cc1ccccn1 [2-Vinylpyridine] | > 90 µM | 
CCCSc1cc(OC)c(CCN)cc1OC [2-[2,5-dimethoxy-4-(propylsulfanyl)phenyl]ethanamine hydrochloride] |  | CC50 at 24 h (AC50 (uM) modified / 1000, Tox21_110001=Tox21_112821, viability, 1 nM T3 present, 24 h): 34.6 µM
CCCCOCCOCCOCCO [2-[2-(2-Butoxyethoxy)ethoxy]ethanol] | > 90 µM | 
CCOCCOCCOCCO [2-[2-(2-Ethoxyethoxy)ethoxy]ethanol] | > 90 µM | 
COCCOCCOCCO [2-[2-(2-Methoxyethoxy)ethoxy]ethanol] | > 90 µM | 
CCCOCCOCCOCCO [2-[2-(2-Propoxyethoxy)ethoxy]ethanol] | > 90 µM | 
CN(C)CCOCCO [2-[2-(Dimethylamino)ethoxy]ethanol] | > 90 µM | 
CCCCCCOCCOCCO [2-[2-(Hexyloxy)ethoxy]ethanol] | > 90 µM | 

SMILES | CC50 at 24 h (AC50 (uM) modified / 1000) | also measured
CCCCN(CCCC)c1ccc(C(=O)c2ccccc2C(=O)O)c(O)c1 [2-[4-(Dibutylamino)-2-hydroxybenzoyl]benzoic acid] | 46.7 µM | 
CCN(CC)c1ccc(C(=O)c2ccccc2C(=O)O)c(O)c1 [2-[4-(Diethylamino)-2-hydroxybenzoyl]benzoic acid] | > 90 µM | 
Cc1cc(Nc2ccccc2C(=O)O)ccc1Cl [2-[(4-Chloro-3-methylphenyl)amino]benzoic acid] | > 50 µM | 
C=C(C)C(=O)OCCOC(=O)CC(C)=O [2-[Methacryloyloxy]ethyl acetoacetate] | > 90 µM | 
CN(C)CCOCCN(C)CCO [2-[{2-[2-(Dimethylamino)ethoxy]ethyl}(methyl)amino]ethanol] | > 90 µM | 
C=CC(=C)CCCC(C)(C)OC(C)=O [2-methyl-6-methylideneoct-7-en-2-yl acetate] | > 90 µM | 
CCC(C)c1nccnc1OC (stereo not shown) [2-sec-Butyl-3-methoxypyrazine] | > 90 µM | 
CCC(C)C1CCCCC1=O (stereo not shown) [2-sec-Butylcyclohexanone] | > 90 µM | 
CCc1ccc(O)c(C(C)(C)C)c1 [2-tert-Butyl-4-ethylphenol] | 62.1 µM | 
Cc1cccc(C(C)(C)C)c1O [2-tert-Butyl-6-methylphenol] | > 90 µM | 
CC(C)(C)C1CCCCC1O (stereo not shown) [2-tert-Butylcyclohexanol] | > 90 µM | 
CC(C)(C)C1CCCCC1=O (stereo not shown) [2-tert-Butylcyclohexanone] | > 90 µM | 
CC(=O)OC1CCCCC1C(C)(C)C (stereo not shown) [2-tert-Butylcyclohexyl acetate] | > 90 µM | 
CC(C)(C)c1ccccc1O [2-tert-Butylphenol] | > 90 µM | 
CN(C)CCN(C)CCO [2-{[2-(Dimethylamino)ethyl](methyl)amino}ethanol] | > 90 µM | 
F/C(COc1ccc2c(c1)[nH]c1ccccc12)=C1/CN2CCC1CC2 [2-{[(2E)-2-(1-Azabicyclo[2.2.2]oct-3-ylidene)-2-fluoroethyl]oxy}-9H-carbazole] | 7.59 µM | 
O=c1[nH]c2ccccc2c(=O)o1 [2H-3,1-Benzoxazine-2,4(1H)-dione] |  | CC50 at 24 h (AC50 (uM) modified / 1000, Tox21_110001=Tox21_201325, viability, 1 nM T3 present, 24 h): > 90 µM
Cc1cn([C@H]2C[C@H](N=[N+]=[N-])[C@@H](CO)O2)c(=O)[nH]c1=O [3'-Azido-3'-deoxythymidine] | > 90 µM | 
Cc1cccc(N=Nc2ccc(N(C)C)cc2)c1 [3'-Methyl-4-dimethylaminoazobenzene] |  | CC50 at 24 h (AC50 (uM) modified / 1000, Tox21_110001=Tox21_201755, viability, 1 nM T3 present, 24 h): 72.8 µM; CC50 at 24 h (AC50 (uM) modified / 1000, Tox21_110001=Tox21_303022, viability, 1 nM T3 present, 24 h): > 90 µM
Nc1ccc(-c2ccc(N)c(N)c2)cc1N [3,3',4,4'-Tetraaminobiphenyl tetrahydrochloride] | 64.7 µM | 
Cc1cc(-c2cc(C)c(N)c(C)c2)cc(C)c1N [3,3',5,5'-Tetramethylbenzidine] | > 90 µM | 
C[Si](C)(CCCN)O[Si](C)(C)CCCN [3,3'-(1,1,3,3-Tetramethyldisiloxane-1,3-diyl)dipropan-1-amine] | > 90 µM | 
O=C(O)/C=C/c1ccc(/C=C/C(=O)O)cc1 [3,3'-(1,4-Phenylene)bis-2-propenoic acid] | > 50 µM | 
Cc1ccc(NC(=O)N(C)C)cc1NC(=O)N(C)C [3,3'-(4-Methylbenzene-1,3-diyl)bis(1,1-dimethylurea)] | > 90 µM | 
N#CCCOCCOCCC#N [3,3'-(Ethylenedioxy)dipropiononitrile] | > 90 µM | 
Nc1ccc(-c2ccc(N)c(Cl)c2)cc1Cl [3,3'-Dichlorobenzidine dihydrochloride] |  | CC50 at 24 h (AC50 (uM) modified / 1000, Tox21_110001=Tox21_201906, viability, 1 nM T3 present, 24 h): 76.5 µM; CC50 at 24 h (AC50 (uM) modified / 1000, Tox21_110001=Tox21_302894, viability, 1 nM T3 present, 24 h): 20.3 µM
Nc1ccc(-c2ccc(N)c(Cl)c2)cc1Cl [3,3'-Dichlorobenzidine] |  | CC50 at 24 h (AC50 (uM) modified / 1000, Tox21_110001=Tox21_202224, viability, 1 nM T3 present, 24 h): 26.1 µM

SMILES | CC50 at 24 h (AC50 (uM) modified / 1000) | also measured
CCN1/C(=C/C=C/c2sc3ccccc3[n+]2CC)Sc2ccccc21 [3,3'-Diethylthiacarbocyanine iodide] | 1.67 µM | 
COc1cc(-c2ccc(N=C=O)c(OC)c2)ccc1N=C=O [3,3'-Dimethoxybenzidine-4,4'-diisocyanate] | > 50 µM | 
Cc1cc(-c2ccc(N)c(C)c2)ccc1N [3,3'-Dimethylbenzidine] |  | CC50 at 24 h (AC50 (uM) modified / 1000, Tox21_110001=Tox21_201292, viability, 1 nM T3 present, 24 h): > 90 µM
Cc1cc(C(C)(C)c2ccc(O)c(C)c2)ccc1O [3,3'-Dimethylbisphenol A] | > 90 µM | 
O=C(O)CCSSCCC(=O)O [3,3'-Dithiodipropionic acid] | > 90 µM | 
N#CCCNCCC#N [3,3'-Iminobispropanenitrile] | > 100 µM | 
Nc1cccc(S(=O)(=O)c2cccc(N)c2)c1 [3,3'-Sulphonyldianiline] | > 90 µM | 
O=C(O)CCSCCC(=O)O [3,3'-Thiodipropionic acid] | > 90 µM | 
N#CCCSCCC#N [3,3'-Thiodipropionitrile] | > 90 µM | 
O=S1(=O)CC(Cl)(Cl)C(Cl)(Cl)C1 [3,3,4,4-Tetrachlorotetrahydrothiophene 1,1-dioxide] | 1.02 µM | 
CC1CC(O)CC(C)(C)C1 (stereo not shown) [3,3,5-Trimethylcyclohexanol] | > 90 µM | 
CC1CC(=O)CC(C)(C)C1 (stereo not shown) [3,3,5-Trimethylcyclohexanone] | > 90 µM | 
C=C(C)C(=O)OC1CC(C)CC(C)(C)C1 (stereo not shown) [3,3,5-Trimethylcyclohexyl 2-methylprop-2-enoate] | > 90 µM | 
C=CC(C)(C)C [3,3-Dimethyl-1-butene] | > 90 µM | 
CC(=O)C(C)(C)C [3,3-Dimethyl-2-butanone] |  | CC50 at 24 h (AC50 (uM) modified / 1000, Tox21_110001=Tox21_200060, viability, 1 nM T3 present, 24 h): > 100 µM
CC(C)(C)C(=O)C(=O)O [3,3-Dimethyl-2-oxobutyric acid] | > 90 µM | 
CC(C)=CC(=O)O [3,3-Dimethylacrylic acid] | > 90 µM | 
CC(=O)OCC=C(C)C [3,3-Dimethylallyl acetate] | > 60 µM | 
O=CC=C(c1ccccc1)c1ccccc1 [3,3-Diphenylacrylaldehyde] | 42.2 µM | 
Nc1ccc(Oc2ccc(N)c(N)c2)cc1 [3,4,4'-Triaminodiphenyl ether] | 75.2 µM | 
N#Cc1nc(Cl)c(Cl)c(Cl)c1Cl [3,4,5,6-Tetrachloropyridine-2-carbonitrile] | 3 µM | 
O=C(O)c1nc(Cl)c(Cl)c(Cl)c1Cl [3,4,5,6-Tetrachloropyridine-2-carboxylic acid] | > 90 µM | 
O=[N+]([O-])c1cc(Cl)c(Cl)c(Cl)c1 [3,4,5-Trichloronitrobenzene] | > 90 µM | 
Oc1cc(Cl)c(Cl)c(Cl)c1 [3,4,5-Trichlorophenol] | 29.9 µM | 
COc1cc(CC(C)N)cc(OC)c1OC (stereo not shown) [3,4,5-Trimethoxyamphetamine hydrochloride] | > 100 µM | 
Nc1ccncc1N [3,4-Diaminopyridine] | > 50 µM | 
